The record followed here is publication PMC3898987 (Bioorganic & Medicinal Chemistry, 2013).

The structures appear in SMILES notation. Positions count from the first letter of the chain named. Several values for one entry are separate records, joined by “and”; a condition that tells them apart may be missing. Identical values can stand only once.

One assay concerns the target T1, 5-HT3A receptor Y73F (Homo sapiens, UniProt P46098, Y68F).
T1 sequence (P46098 24-478 Y68F): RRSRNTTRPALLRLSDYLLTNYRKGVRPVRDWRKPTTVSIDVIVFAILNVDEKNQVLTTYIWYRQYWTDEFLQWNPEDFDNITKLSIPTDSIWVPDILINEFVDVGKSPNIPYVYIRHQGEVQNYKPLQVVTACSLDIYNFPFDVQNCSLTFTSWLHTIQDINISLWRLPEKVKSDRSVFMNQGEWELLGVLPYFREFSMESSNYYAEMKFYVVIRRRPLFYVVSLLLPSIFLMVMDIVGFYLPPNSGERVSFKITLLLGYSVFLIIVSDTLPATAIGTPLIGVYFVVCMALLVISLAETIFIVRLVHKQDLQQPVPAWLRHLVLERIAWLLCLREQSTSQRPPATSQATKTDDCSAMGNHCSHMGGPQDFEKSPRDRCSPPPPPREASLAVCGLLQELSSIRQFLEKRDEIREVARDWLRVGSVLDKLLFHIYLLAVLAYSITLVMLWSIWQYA
The experiment in a line: FlexStation membrane potential dye functional assay, HEK293 cells. Details: expressed in transfected cells; host or cells: HEK293. The conditions noted are these: 5-HT3A Y73F. Type of assay: cell-based.

Assay [1] concerns the target T2, WT 5-HT3A receptor (Homo sapiens, UniProt P46098).
T2 sequence (P46098 24-478): T1 sequence (P46098 24-478 Y68F) with F45Y
The assay is described as follows: radioligand saturation binding, transfected HEK293 membranes. As to conditions: [3H]-palonosetron saturation, 4 °C, 24 h.
Procedure: Human embryonic kidney (HEK) 293 cells were cultured on 90 mm tissue culture plates at 37 °C and 7% CO2 in a humidified atmosphere. They were grown in DMEM:F12 (Dulbecco’s Modified Eagle’s Medium/Nutrient Mix F12 (1:1)) with GlutaMAX I™ containing 10% fetal calf serum and passaged when confluent. For radioligand binding studies, cells in 90 mm dishes were transfected at 60–70% confluency using polyethyleneimine and incubated for 3–4 days before use. For FlexStation assays, transfected cells were plated on 96-well plates and incubated 1–2 days before assay. […]
Eight-point binding assays were performed to produce saturation binding curves. […] Radioactive counts were measured using a Beckman LS6000SC liquid scintillation counter (Fullerton, California, USA).
Data were analyzed by iterative curve fitting using GraphPad Prism v5 (San Diego, CA) according to the following equation: B=Bmax[L]^n/kdn+[L]^n where B is the amount of bound radioligand, Bmax is the maximum specific binding at equilibrium, [L] is the concentration of radioligand, Kd is the equilibrium dissociation constant of the radioligand, and n is the Hill coefficient.

The target in assay [2] is T2, WT 5-HT3A receptor. The assay is described as follows: FlexStation membrane potential dye functional assay, HEK293 cells. Type of assay: cell-based. Details: expressed in transfected cells; host or cells: HEK293.
Procedure: (§1) Human embryonic kidney (HEK) 293 cells were cultured on 90 mm tissue culture plates at 37 °C and 7% CO2 in a humidified atmosphere. They were grown in DMEM:F12 (Dulbecco’s Modified Eagle’s Medium/Nutrient Mix F12 (1:1)) with GlutaMAX I™ containing 10% fetal calf serum and passaged when confluent. […] For FlexStation assays, transfected cells were plated on 96-well plates and incubated 1–2 days before assay.
(§2) Fluorometric studies were undertaken using a FlexStation® (Molecular Devices, Sunnyvale, CA, USA) as previously described.[11]
(§3) Fluorescence was measured every 2 s for 200 s. […] Concentration–response and inhibition curves were obtained for each mutant, and the fluorescence values were normalized to the maximal response.
Assay [3] deals with T3, 5-HT3AB receptor, 5-HT3B subunit H73A (Homo sapiens, UniProt O95264+P46098, H66A).
T3 sequence (P46098 24-478): T1 sequence (P46098 24-478 Y68F) with F45Y
T3 sequence (O95264 22-441 H66A): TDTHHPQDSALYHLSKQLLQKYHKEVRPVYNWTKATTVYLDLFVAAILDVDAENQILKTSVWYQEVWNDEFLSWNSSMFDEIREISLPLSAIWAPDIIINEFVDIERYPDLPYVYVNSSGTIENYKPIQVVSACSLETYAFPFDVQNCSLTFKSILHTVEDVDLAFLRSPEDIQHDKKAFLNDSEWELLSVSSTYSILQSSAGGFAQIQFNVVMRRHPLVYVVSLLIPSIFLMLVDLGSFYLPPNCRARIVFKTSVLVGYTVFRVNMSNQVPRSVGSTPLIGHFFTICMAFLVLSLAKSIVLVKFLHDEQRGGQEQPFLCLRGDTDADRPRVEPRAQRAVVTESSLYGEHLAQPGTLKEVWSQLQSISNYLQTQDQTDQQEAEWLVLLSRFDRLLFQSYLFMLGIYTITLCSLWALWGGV
The assay is described as follows: cell-based.
Procedure: as §1, §2, §3

The target of the next assay is T4, 5-HT3A receptor Y73S (Homo sapiens, UniProt P46098, Y68S).
T4 sequence (P46098 24-478 Y68S): T1 sequence (P46098 24-478 Y68F) with F45S
The experiment in a line: FlexStation membrane potential dye functional assay, HEK293 cells. The assay is classed as cell-based. The conditions noted are these: 5-HT3A Y73S. Set-up: expressed in transfected cells; host or cells: HEK293.

In assay [4] the target is T5, 5-HT3AB receptor, 5-HT3B subunit F130A (Homo sapiens, UniProt O95264+P46098, F123A).
T5 sequence (P46098 24-478): T1 sequence (P46098 24-478 Y68F) with F45Y
T5 sequence (O95264 22-441 F123A): T3 sequence (O95264 22-441 H66A) with A45H, F102A
The assay is described as follows: cell-based.
Procedure: as §1, §2, §3

[5] abbreviates: inhibition of 5-HT (EC50 concentration) response, 45 min preincubation.

Procedure for 5-HT3A receptor Y73F: as §1, §2, §3
Procedure for 5-HT3A receptor Y73S: as §1, §2, §3

As usually defined, the IC50 is the midpoint of a concentration-inhibition curve. In general, Kd refers to the concentration at which binding is half-saturated. On to `O=C1c2cccc3c2[C@H](CCC3)CN1[C@@H]1CN2CCC1CC2` [Palonosetron], for which the IC50 at 5-HT3A receptor Y73F (setting [5]) turned out to be 1.23 ± 0.15 nM; on WT 5-HT3A receptor [2] (setting [5]), 0.83 ± 0.49 nM; in assay [3] it was 0.97 ± 0.26 nM; at 5-HT3A receptor Y73S (setting [5]), 3.64 ± 1.1 nM; in assay [4], 0.84 ± 0.11 nM. At WT 5-HT3A receptor [1], this compound showed a Kd of 0.32 ± 0.07 nM.

Take `NCCc1c[nH]c2ccc(O)cc12` [5-HT, serotonin]: the “Hill Coefficient” value at 5-HT3A receptor Y73F (5-HT concentration-response) was 2.3 ± 0.3; on WT 5-HT3A receptor [2] (5-HT concentration-response) it was 2.3 and 2.3 ± 0.2; at 5-HT3A receptor Y73S (5-HT concentration-response) it was 2.0 ± 0.3.
